Measurements taken from patent publication US10962528B2, “Blue fluorescent protein monomers and uses thereof” (WISYS TECHNOLOGY FOUNDATION, INC., priority 2015, dated 2021).

Columns and labels:
[1] = target: T1, Sander vitreus (blue walleye) Sandercyanin fluorescent protein (SFP), wild type, SEQ ID NO:1 (recombinant without signal peptide SEQ ID NO:31) (Sander vitreus, UniProt A0A1D5B367); experiment: Binding of biliverdin to (apo) Sandercyanin by fluorescence titration
T1 construct: apo monomer, tetramer with biliverdin
T1 sequence (A0A1D5B367 1-170): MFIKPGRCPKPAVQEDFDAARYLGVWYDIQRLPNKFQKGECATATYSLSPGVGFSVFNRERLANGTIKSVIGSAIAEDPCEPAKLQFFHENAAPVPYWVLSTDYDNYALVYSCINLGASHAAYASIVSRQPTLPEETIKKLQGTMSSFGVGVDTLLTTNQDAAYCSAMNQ
Protocol: FIGS. 11C-11D (C) Titration of apo-SFP (20 uM) with BV IXα measured at 675 nm with λex=375 nm (green) and 630 nm (red). (D) Photo-bleaching kinetics of Sandercyanin and free-biliverdin (BV).
Addition of the biliverdin to apo-protein results in red-shift in the fluorescence of Sandercyanin to near infra-red (NIR) region. Molar extinction coefficient of holoSFP measured in phosphate buffer of pH 7.4 at 375 nm and 630 nm are 21,000 M^−1 cm^−1 and 13,500 M^−1 cm^−1 respectively and quantum yield is determined to be 0.016. Further, fluorescence spectra is widely spread into the infrared region with minimal overlap with the excitation spectra. We examined the affinity of apoSFP towards BV using fluorescence and determined Kd of 6 μM.
Native SFP was extracted and purified from the mucus of Blue Walleye from Northwest Ontario by various chromatographic methods as described previously (Chi Li et al). A putative amino acid sequence of SFP was determined from crystal structure of the native protein, confirmed and corrected after whole genome sequencing of Blue Walleye. […]
All experiments were performed with purified SFP samples (apo and holo forms) at pH 7.5 and room temperature. UV-Visible absorbance spectra of native and recombinant SFP were recorded from 800 to 200 nm with ultraspec 2100 pro spectrophotometer from Amersham Biosciences. CD spectra were measured on JASCO J-815 Spectropolarimeter. […]

[2] = target: Sander vitreus Sandercyanin fluorescent protein (SFP) variant SFP-A137E, SEQ ID NO:4 (Sander vitreus, UniProt A0A1D5B367, A118E); experiment: Biliverdin binding of monomeric SFP variant
Chain of Sander vitreus Sandercyanin fluorescent protein (SFP) variant SFP-A137E, SEQ ID NO:4 (A0A1D5B367 entry or part of it A118E): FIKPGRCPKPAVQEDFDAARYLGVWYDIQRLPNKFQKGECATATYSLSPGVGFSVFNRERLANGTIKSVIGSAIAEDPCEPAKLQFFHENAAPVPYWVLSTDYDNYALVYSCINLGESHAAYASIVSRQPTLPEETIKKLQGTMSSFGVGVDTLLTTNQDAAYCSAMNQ
Protocol: (§1) All experiments were performed with purified SFP samples (apo and holo forms) at pH 7.5 and room temperature. UV-Visible absorbance spectra of native and recombinant SFP were recorded from 800 to 200 nm with ultraspec 2100 pro spectrophotometer from Amersham Biosciences. CD spectra were measured on JASCO J-815 Spectropolarimeter. Steady state fluorescence, excitation, binding and photobleaching studies were monitored on Horiba Jobin Yvon Fluoromax-4 fluorimeter. Data analysis were done using Origin6 and Origin8 software. Hydrogen was exchanged with Deuterium by increasing concentrations of D2O to a standard protein concentration. Deuteriated proteins were prepared in the same buffer, incubated for 15 minutes, and monitored for spectral properties.
(§2) All SFP variants were expressed using E. coli BL21*(DE3) cells. Briefly, each of the SFP monomer mutant genes in pET21a vector were transformed into BL21*(DE3) cells and selected on a LB agar plate containing ampicillin (100 μg/mL). For large scale expression, about 5 mL of the overnight grown primary culture was inoculated into 500 mL of LB medium containing 100 μg/mL ampicillin. Cells were grown at 37° C. until OD600 nm reached to 0.6-0.7. Then, cells were induced using 0.2 mM isopropyl-thiogalactoside (IPTG). Post-induction cells were grown at 20° C. for 20 hours. Thereafter, cells were harvested by centrifugation at 6000 rpm for 10 minutes. Bacterial cell pellet containing SFP as insoluble protein was resuspended in a lysis buffer (20 mM Tris-HCl, pH 7.5, 10 mM EDTA and 1% TritonX). […] Thus, refolded purified SFP was checked using an analytical gel filtration column for oligomerization state and biliverdin (BV) binding by UV-visible absorbance and fluorescence spectroscopy (FIGS. 1A-1D).
(§3) Characterization of monoSFP Variants—MonoSFP variants were characterized by size-exclusion chromatography during purification of the proteins. […] They have far-red to near infra-red fluorescence with large Stokes shift. […] To test this, we performed detergent (Triton X-100) assays with the monoSFPs and measured absorbance and fluorescence spectra. […]

[3] = target: Sander vitreus Sandercyanin fluorescent protein (SFP) variant SFP-L135E (mSFP2), SEQ ID NO:3 (Sander vitreus, UniProt A0A1D5B367, L116E); experiment: Biliverdin binding of monomeric SFP variant
Chain of Sander vitreus Sandercyanin fluorescent protein (SFP) variant SFP-L135E (mSFP2), SEQ ID NO:3 (A0A1D5B367 entry or part of it L116E): as the sequence (A0A1D5B367 entry or part of it A118E) above, with L115E, E117A counted along it
Protocol: as §1, §2, §3

[4] = target: Sander vitreus Sandercyanin fluorescent protein (SFP) variant SFP-V71E (mSFP1), SEQ ID NO:2 (Sander vitreus, UniProt A0A1D5B367, V52E); experiment: Biliverdin binding of monomeric SFP variant
Chain of Sander vitreus Sandercyanin fluorescent protein (SFP) variant SFP-V71E (mSFP1), SEQ ID NO:2 (A0A1D5B367 entry or part of it V52E): as the sequence (A0A1D5B367 entry or part of it A118E) above, with V51E, E117A counted along it
Protocol: as §1, §2, §3

[5] = target: T2, Sander vitreus Sandercyanin fluorescent protein (SFP) variant, Phe 55 to alanine (Sander vitreus, UniProt A0A1D5B367, F36A); experiment: Biliverdin binding of SFP mutant; conditions: Phe 55 to alanine mutation
T2 construct: preparation not described for this mutant
T2 sequence (A0A1D5B367 entry or part of it F36A): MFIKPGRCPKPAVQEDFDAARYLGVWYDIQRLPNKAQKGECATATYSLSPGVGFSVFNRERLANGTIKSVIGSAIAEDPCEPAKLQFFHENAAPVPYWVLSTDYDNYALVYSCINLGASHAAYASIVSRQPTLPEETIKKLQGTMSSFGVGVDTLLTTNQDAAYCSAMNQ

**Q.** How did the Kd ([1]; Table 4, wild-type SFP (tetramer)) turn out when `C=CC1=C(C)/C(=C/C2=NC(=C\c3[nH]c(/C=C4\NC(=O)C(C)=C4C=C)c(C)c3CCC(=O)O)/C(CCC(=O)O)=C2C)NC1=O` [BV, Biliverdin IXα] was run?
**A.** 5 to 6 µM

**Q.** And the Kd ([1]; affinity of apoSFP towards BV using fluorescence, pH 7.5, room temperature)?
**A.** 6 µM

**Q.** What about the Kd [2] of the same compound?
**A.** 3 to 5 µM

**Q.** What about the Kd [3] of the same compound?
**A.** 4 to 12 µM

**Q.** What about the Kd [4] of the same compound?
**A.** 4 to 6 µM

**Q.** What about the BV binding [5] of the same compound?
**A.** abolished BV binding
